Assay results reported in paper PMC3479139, “Diverse Small Molecule Inhibitors of Human Apurinic/Apyrimidinic Endonuclease APE1 Identified from a Screen of a Large Public Collection” (PLoS ONE, 2012).
Read-outs that look alike come from different tables or passages of the source.

What was measured:
APE1 [1] = target: T1, APE1 (Homo sapiens, UniProt P27695); test: Fluorescence polarization (FP) displacement assay of APE1 binding to AP-DNA probe;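 also: TAMRA 5′-labeled duplex DNA with THF abasic site (5 nM) and APE1 (20 nM), Mg2+-free buffer, 15 min at room temperature, inhibition seen as lowered polarization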
T1 construct: made in house
Method: Double-stranded oligodeoxynucleotide containing tetrahydrofuran (THF) abasic site labeled with TAMRA at the 5′-end was used as the labeled binding probe. Inhibition of APE1 binding to labeled probe was detected by a decrease in the fluorescence polarization (FP) of the fluorophore. Briefly, 4 µL mixture of 20 nM APE1 and 5 nM probe contained in the enzymatic assay buffer from which Mg^2+ was omitted, was dispensed into 1536-well Greiner black solid bottom plates. Compounds (23 nL) were transferred via pintool, and after a 15-minute incubation at room temperature, fluorescence polarization was measured in a ViewLux High-throughput CCD imager (480 nm excitation and 540 nm emission) to determine the degree of probe displacement caused by the test compounds.

[2] = system: human immunodeficiency virus integrase; parameters: method as in PMID 9865384; conditions: cited from earlier work
[3] = target: double-stranded 17-mer DNA fragment; test: ThO (Thiazole Orange) DNA displacement assay; format: binding; conditions: read-out: ThO-DNA binding IC50;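 also: miniaturized displacement of the intercalating dye from unlabeled duplex DNA, used to flag nonspecific DNA binders, chiefly intercalators, groove binders may be missed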
HeLa cells [4] = test: AP site measurement in genomic DNA; format: cell-based, human; conditions: for AP site levels, combination treatment versus MMS-alone / AP sites upon treatment with the inhibitor alone: 24 h; for AP site levels, combination treatment versus MMS-alone: initial test (Figure 8); for AP sites upon treatment with the inhibitor alone: inhibitor alone vs vehicle
Method: HeLa cells at 80% confluency (6×10^5 cells) were subjected to the following treatments in a 6-well plate for 24 hours at 37°C: 1) DMSO alone, 2) 275 µM MMS, 3) APE1 inhibitors dissolved in DMSO (5–20 µM final compound concentration), and 4) the inhibitors as in treatment 3 in combination with 275 µM MMS. Cells were then harvested and processed using a Qiagen Genomic DNA isolation kit (Germantown, MD). After DNA quantitation, AP sites were measured using the DNA Damage Quantification kit from Dojindo Molecular Technologies (Rockville, MD).
As stated above, the application of the genotoxic agent MMS results in an increase in the level of AP sites within the genome. An effective APE1-targeted inhibitor applied under the conditions of increased genotoxic stress is expected to interfere with the repair of AP sites, while ideally having no effect on the AP site levels when applied as a single agent. Thus, the net effect of treating cells with a combination of MMS and inhibitor would be an increase in the number of AP site lesions. To determine the effect on AP site accumulation caused by treatment with MMS in combination with an APE1 inhibitor, as compared to treatment with MMS or inhibitor alone, we measured AP site levels in the chromosomal DNA from HeLa cells using an aldehyde-reactive probe-based colorimetric assay. The concentrations of MMS and inhibitor (275 µM for MMS and between […] for the inhibitor, respectively) were selected to fall below the onset of cytotoxicity for each agent based on the analysis of the MMS potentiation data shown in Figure 5.

HeLa cells [5] = test: MMS potentiation assay (CellTiter Glo viability); format: cell-based, human; parameters: key: N.A., no activity observed; P, positive; I, inconclusive; N.T., not tested; conditions: for MMS Assay: potentiation of the genotoxic effect of methylmethane sulfonate
Method: HeLa cells were plated at 6000 cells/well in DMEM culture medium containing 10% FBS into white solid bottom 384-well cell culture plates. The plates were incubated at 37°C overnight for cell attachment, followed by media replacement. The fresh medium contained serial dilutions of compounds of interest in the presence (0.4 mM final) or absence of MMS. The plates were incubated for 24 h at 37°C. Cell viability was determined by luminescence detection after an addition of 15 µL of CellTiter Glo reagent (Promega, Madison, WI). Percent viability was calculated for each concentration of compound tested in duplicate by relating the corresponding luminescence to that of a negative DMSO vehicle control. MMS potentiation trends were defined as follows: negative (-), if cell viability in the compound-plus-MMS treatment was the same as that of the DMSO-plus-MMS control (overlapping dose-response curves); inconclusive (I), if the shift in the cell viability dose-response upon MMS inclusion relative to compound-alone was less than 30%; and positive (P), if the difference between the compound-plus-MMS and compound-alone curves was at least 30%, and maintained within at least a two-fold compound concentration span.
To examine the biological prospects of the top compounds, we tested their ability to inhibit APE1 DNA repair activity by assessing enhancement of MMS toxicity in mammalian cells. MMS creates methylated-base damage to genomic DNA, which, when excised by an alkylpurine DNA glycosylase, results in a high number of cytotoxic AP sites. We compared the viability of HeLa cells exposed to a dilution series of inhibitor alone to a combination of a fixed MMS concentration with the same dilution series of inhibitor by using a standard CellTiter Glo luminescence assay. This technique measures the number of viable cells in culture based on quantitation of the ATP present, which signals the presence of metabolically active cells. The assay was further optimized for 384-well plates, allowing a high-throughput testing of multiple hits at multiple concentrations, a scope of investigation previously impossible due to the very low throughput of the traditionally applied colony formation assay.
From the 223 compounds found positive in the gel-based APE1 assays, exclusion of the most promiscuous hits, that is, those that were both DNA binders and EndoIV-inhibitory, yielded a set of 170 compounds (Figure 3). This shortened group of hits was tested in the cell-based potentiation assay for their ability to dose-dependently enhance sensitivity of HeLa cells to the alkylating agent MMS.

APE1 [6] = target: T1, APE1; test: Gel-based radiotracer (32P) APE1 incision assay; format: biochemical; parameters: concentration or dose not given beside the values; conditions: percent incision shown; entries 1-112;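 also: APE1 incision reactions ran 5 min at 37 °C, with cleaved product and intact substrate resolved electrophoretically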
E. coli Endo IV = target: T2, E. coli Endo IV (Escherichia coli, UniProt P0A6C1); test: E. coli Endo IV profiling counterscreen; format: biochemical;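 also: selectivity counterscreen of candidate APE1 inhibitors against the bacterial endonuclease Endo IV, run in the same assay format as the primary APE1 high-throughput screen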
T2 construct: made in house
Text: In order to screen out nonselective compounds, such as non-specific DNA binders and inhibitors of related enzymes, we used a miniaturized ThO DNA displacement assay and a counterscreen against the bacterial endonuclease E. coli Endo IV, respectively, following the previously published protocols [21].
To probe the selectivity of the candidate APE1 inhibitors, we tested them against E. coli EndoIV [36], employing the same assay as used in the HTS.

APE1 [7] = target: T1, APE1; test: Fluorogenic kinetic qHTS APE1 incision assay (primary screen and retest of cherrypicked samples); format: biochemical;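 also: purified APE1 cleaving a fluorophore/dark-quencher labelled 17-mer duplex DNA bearing a tetrahydrofuran AP site, fluorescence rise followed kinetically over the first 2 min, inhibition normalized to controls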
Method: All screening operations were performed on a fully integrated robotic system (Kalypsys, San Diego, CA) [28] with library plates screened proceeding from the lowest to the highest concentration to minimize compound carryover [26]. Vehicle-only plates, with DMSO being pin-transferred to the entire column 5–48 compound area, were included regularly throughout the screen in order to record any systematic shifts in assay signal. During the screen, reagent bottles were kept at 4°C and all liquid lines were covered with aluminum foil to minimize degradation.
Screening data were corrected and normalized, and concentration–effect relationships was derived using in-house developed algorithms [25].
To screen for inhibitors of APE1 incision activity, we employed a purified-enzyme biochemical assay with a model substrate featuring a red-shifted fluorescent reporter in combination with a dark non-emitting quencher. These moieties were incorporated as end labels onto a 17-mer double-stranded DNA fragment containing a centrally-located tetrahydrofuran AP site sugar mimetic, which serves as the APE1 cleavage site. Upon APE1-catalyzed strand scission immediately 5′ to the AP site analog, the shortened oligodeoxynucleotide carrying the fluorescent reporter spontaneously dissociates from the rest of the substrate, leading to an increase in fluorescence due to its spatial separation from the dark quencher (Figure 1A).
Using a high-speed whole-plate fluorescence imager, the assay data for the entire screen was conducted in kinetic mode, with the APE1 incision reaction being monitored over the initial linear time frame of 2 min (Figure 1B). Thus, any inhibition associated with each sample was computed from the alteration in fluorescence intensity over the time-course measurement period, after normalization against the appropriate controls (Figure 1B, inset).

[8] = system: histone acetyltransferase (HAT) p300; parameters: method as in PMID 20534345, PMID 21764752; conditions: cited from earlier work
APE1 [9] = target: T1, APE1; test: Gel-based APE1 incision assay with fluorescence (TAMRA) detection; format: biochemical
tubulin = system: tubulin; parameters: method as in PMID 20657644; conditions: cited from earlier work
[10] = initial quantitative high-throughput screen, read-out: APE1 qHTS IC50
[11] = retest of cherrypicked sample, read-out: APE1 Retest IC50
[12] = estimated IC50, fluorophore detection, entries 113-223, read-out: F-PAGE Assay IC50

T1 sequence (P27695 whole entry): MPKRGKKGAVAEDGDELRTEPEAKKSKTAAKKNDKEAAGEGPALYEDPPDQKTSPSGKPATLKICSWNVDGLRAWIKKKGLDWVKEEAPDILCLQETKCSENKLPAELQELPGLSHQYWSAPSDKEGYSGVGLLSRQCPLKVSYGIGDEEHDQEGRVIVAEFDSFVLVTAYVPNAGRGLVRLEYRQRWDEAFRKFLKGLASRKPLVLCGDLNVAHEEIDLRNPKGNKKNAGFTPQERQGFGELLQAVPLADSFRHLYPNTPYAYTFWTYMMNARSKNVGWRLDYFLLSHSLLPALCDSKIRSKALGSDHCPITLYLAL

Structure (SMILES): O=c1oc2c(cc1O)oc(=O)c1cc(O)c(O)c(O)c12 [MLS000737267, galloflavin]
- IC50 (APE1 [1]; read-out: FP IC50): > 57 µM
- HIV integrase IC50 [2]: low-micromolar
- IC50 [3]: 6.3 µM
- AP site levels, combination treatment versus MMS-alone (HeLa cells [4]; 275 µM MMS plus inhibitor): no statistical significance
- MMS Assay (HeLa cells [5]): P
- Radiotracer Assay (%Activity) (APE1 [6]): 46%
- IC50 (E. coli Endo IV; read-out: EndoIV IC50): > 57 µM
- IC50 (APE1 [7]; [10]): 0.4 µM
- IC50 (APE1 [7]; [11]): 0.13 µM

Structure (SMILES): O=C1NC(=O)N(Cc2ccco2)C(=O)C1=CC=Cc1ccco1 [MLS000587064]
- IC50 (APE1 [1]): > 57 µM
- IC50 [3]: > 57 µM
- AP site levels, combination versus MMS-alone, repeat testing (HeLa cells [4]; 275 µM MMS plus inhibitor, repeat test (Figure S1)): support the initially-observed enhancements
- AP site levels, combination treatment versus MMS-alone (HeLa cells [4]; 275 µM MMS plus inhibitor): obscured by large standard deviations
- MMS Assay (HeLa cells [5]): P
- Radiotracer Assay (%Activity) (APE1 [6]): 14%
- IC50 (E. coli Endo IV): > 57 µM
- IC50 (APE1 [7]; APE1 Retest IC50, retest of cherrypicked sample): 5 µM
- IC50 (APE1 [7]; APE1 qHTS IC50, initial quantitative high-throughput screen): 2.8 µM

Structure (SMILES): CCOC(=O)c1cc(-c2ccc(/C=C3/C(=O)N(c4ccc(C(=O)O)cc4)N=C3C)o2)ccc1Cl [MLS001196838]
- IC50 (APE1 [1]; read-out: FP IC50): > 57 µM
- IC50 [3]: 16.2 µM
- AP sites upon treatment with the inhibitor alone (HeLa cells [4]): noticeable increase in AP sites
- MMS Assay (HeLa cells [5]): P
- Inhibition of HAT p300 [8]: potent and selective inhibitor
- IC50 (APE1 [9]; [12]): 7.9 µM
- IC50 (E. coli Endo IV; read-out: EndoIV IC50): > 57 µM
- IC50 (APE1 [7]; [10]): 8.4 µM
- IC50 (APE1 [7]; [11]): 25.7 µM

Structure (SMILES): COc1ccc2nc3cc(Cl)ccc3c(Nc3cc(CN4CCCC4)c(O)c(CN4CCCC4)c3)c2n1 [MLS001306480, pyronaridine, reference compound]
- IC50 (APE1 [1]; read-out: FP IC50): 32.4 µM
- IC50 [3]: > 57 µM
- AP sites upon treatment with the inhibitor alone (HeLa cells [4]): noticeable increase in AP sites
- MMS Assay: potentiation of the genotoxic effect of methylmethane sulfonate (HeLa cells [5]): P
- IC50 (APE1 [9]; entries 113-223: fluorophore detection, estimated IC50, read-out: Gel-based electrophoretic separation assay with fluorophore detection, estimated IC50 (column headed Radiotracer Assay (%Activity))): 12.6 µM
- IC50 (E. coli Endo IV): 28.9 µM
- IC50 (APE1 [7]; [10]): 15 µM
- IC50 (APE1 [7]; [11]): 6.5 µM

Structure (SMILES): Cc1c(C(=O)OCC2CCCO2)[nH]c2c1C(=O)CC(c1ccco1)C2 (stereo not drawn) [MLS000090966]
- IC50 (APE1 [1]; read-out: FP IC50): 15.8 µM
- IC50 [3]: > 57 µM
- AP site levels, combination treatment versus MMS-alone (HeLa cells [4]; 275 µM MMS plus inhibitor): obscured by large standard deviations
- MMS Assay (HeLa cells [5]): P
- Radiotracer Assay (%Activity) (APE1 [6]): 37%
- Inhibition of tubulin assembly (tubulin): effective inhibitor
- IC50 (E. coli Endo IV; read-out: EndoIV IC50): > 57 µM
- IC50 (APE1 [7]; initial qHTS, 7-point titration, read-out: qHTS, IC50 obtained in the initial quantitative high-throughput screen): 7.07 µM
- IC50 (APE1 [7]; [10]): 7.1 µM
- IC50 (APE1 [7]; [11]): 4.5 µM

Structure (SMILES): COc1ccc2c(c1)c(=O)oc1cc(OCC(=O)N3CCc4ccccc4C3)ccc12 [MLS000594187]
- IC50 (APE1 [1]; read-out: FP IC50): > 57 µM
- IC50 [3]: > 57 µM
- AP site levels, combination treatment versus MMS-alone (HeLa cells [4]; 275 µM MMS plus inhibitor): no statistical significance
- MMS Assay (HeLa cells [5]): P
- Radiotracer Assay (%Activity) (APE1 [6]): 51%
- IC50 (E. coli Endo IV; read-out: EndoIV IC50): > 57 µM
- IC50 (APE1 [7]; [10]): 10 µM
- IC50 (APE1 [7]; [11]): 3.91 µM

Structure (SMILES): CC1CCN(C2=NN3C(=N)/C(=C\c4ccc(OC(=O)c5ccco5)cc4)C(=O)N=C3S2)CC1 [MLS001076862]
- IC50 [3]: > 57 µM
- AP site levels, combination treatment versus MMS-alone (HeLa cells [4]; 275 µM MMS plus inhibitor): no statistical significance
- AP sites upon treatment with the inhibitor alone (HeLa cells [4]): noticeable increase in AP sites
- MMS Assay (HeLa cells [5]): P
- IC50 (APE1 [9]; [12]): 4 µM
- IC50 (E. coli Endo IV; read-out: EndoIV IC50): > 57 µM
- IC50 (APE1 [7]; [10]): 10.6 µM
